Earlier results as cited in patent US20230143309A1, “PYRROLOBENZODIAZEPINE ANTIBODY CONJUGATES” (priority 2016, published 2023).

Legend:
[1] = system: human tumour cell lines; details: for activity against a range of human tumour cell lines: quoted from UCL REF 2014 impact study
[2] = system: human tumour xenograft models; details: quoted from UCL REF 2014 impact study

| Structure (SMILES) | activity against a range of human tumour cell lines [1] | activity in human tumour xenograft models [2] | cytotoxicity relative to SG2057 (less cytotoxic) ([1]; Hartley et al 2012) |
| --- | --- | --- | --- |
| C=C1C[C@H]2C=Nc3cc(OCCCCCOc4cc5c(cc4OC)C(=O)N4CC(=C)C[C@H]4C=N5)c(OC)cc3C(=O)N2C1 [SG2057] | picomolar/sub-picomolar activity | curative activity | – |
| COc1ccc(C2=CN3C(=O)c4cc(OC)c(OCCCOc5cc6c(cc5OC)C(=O)N5C=C(c7ccc(OC)cc7)C[C@H]5C=N6)cc4N=C[C@@H]3C2)cc1 [SG2202] | picomolar/sub-picomolar activity | curative activity | – |
| C=C1C[C@H]2C=Nc3cc(OCCCOc4cc5c(cc4OC)C(=O)N4CC(=C)C[C@H]4C=N5)c(OC)cc3C(=O)N2C1 [SG2000] | – | – | at least 10 times |
